Measurements from US20250382305A1 (PTC THERAPEUTICS, INC., priority 2022, published 2025).

Key:
ATXN3 pre-mRNA = experiment: RT-qPCR Assay to Quantify Exon 4 Skipping in ATXN3 pre-mRNA in Cells; type: cell-based; conditions: percent exon 4 skipping in ATXN3 pre-mRNA, RT-qPCR of cell lysates; average IC50
Outline: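 IC50 derives from a dose-response fit of percent exon 4 skipping, quantified by RT-qPCR on crude lysates. Compounds tested as 7-point 3.16-fold dilutions in duplicate; cells (10,000/well) were exposed for 24 h at 37 °C before lysis.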

[1] = tested on: Total ATXN3 (tATXN3) protein; experiment: Endogenous Total ATXN3 (tATXN3) Protein Assay (MSD immunoassay of cell lysates); type: cell-based; conditions: average IC50, total ATXN3 protein in cell lysate after 48 h with compound (Table 1)
Outline: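 By electrochemiluminescent MSD sandwich immunoassay (mouse monoclonal capture, rabbit monoclonal and SULFO-TAG anti-rabbit detection), endogenous ATXN3 was quantified in lysates of cells treated 48 h at 37° C at 10,000 cells/well. Treatment used a 7-point 3.16-fold duplicate dilution series, with average IC50 grouped into star categories.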

Row | Compound | IC50 (ATXN3 pre-mRNA) [nM] | IC50 [1] [nM]
1 | 6-((1S,2S)-2-aminocyclohexyl)-2,7-dichloro-5-(difluoromethyl)-N-(furan-2-ylmethyl)-5H-pyrrolo[3,2-d]pyrimidin-4-amine and 6-((1R,2R)-2-aminocyclohexyl)-2,7-dichloro-5-(difluoromethyl)-N-(furan-2-ylmethyl)-5H-pyrrolo[3,2-d]pyrimidin-4-amine [Compound 334] | 30 to 300 | 30 to 300
2 | N[C@@H]1CCC[C@H]1c1sc2c(NCc3ccco3)cc(Cl)nc2c1Cl [Compound 114, 2-((1R,2R)-2-aminocyclopentyl)-3,5-dichloro-N-(furan-2-ylmethyl)thieno[3,2-b]pyridin-7-amine] | > 1000 | > 1000
3 | N[C@H]1CCC[C@H]1c1cc2nc(Cl)cc(NCc3cccs3)c2s1 [Compound 111, 2-((1R,2S)-2-aminocyclopentyl)-5-chloro-N-(thiophen-2-ylmethyl)thieno[3,2-b]pyridin-7-amine] | 300 to 1000 | > 1000
4 | Cc1c([C@@H]2CCC[C@H]2N)sc2c(NCc3cccs3)cc(Cl)nc12 [Compound 5, 2-((1R,2R)-2-aminocyclopentyl)-5-chloro-3-methyl-N-(thiophen-2-ylmethyl)thieno[3,2-b]pyridin-7-amine] | > 1000 | > 1000
5 | N[C@@H]1CCCO[C@H]1c1sc2c(NCc3ccco3)cc(Cl)nc2c1Cl [Compound 119, 2-((2R,3R)-3-aminotetrahydro-2H-pyran-2-yl)-3,5-dichloro-N-(furan-2-ylmethyl)thieno[3,2-b]pyridin-7-amine] | > 1000 | > 1000
6 | N[C@H]1CCCC[C@@H]1c1sc2c(NCc3cccs3)cc(Cl)nc2c1Cl (single isomer, unassigned) [Compound 34, 2-((1S,2S)-2-aminocyclohexyl)-3,5-dichloro-N-(thiophen-2-ylmethyl)thieno[3,2-b]pyridin-7-amine or 2-((1R,2R)-2-aminocyclohexyl)-3,5-dichloro-N-(thiophen-2-ylmethyl)thieno[3,2-b]pyridine-7-amine] | ≤ 30 | ≤ 30
7 | N[C@@H]1CCCCCC[C@H]1c1sc2c(NCc3cccs3)cc(Cl)nc2c1Cl [Compound 97, 2-((1R,2R)-2-aminocyclooctyl)-3,5-dichloro-N-(thiophen-2-ylmethyl)thieno[3,2-b]pyridin-7-amine] | > 1000 | > 1000
8 | 2-((2R,3R)-3-aminotetrahydro-2H-pyran-2-yl)-5-chloro-N-(furan-2-ylmethyl)-3-methylthieno[3,2-b]pyridin-7-amine and 2-((2S,3S)-3-aminotetrahydro-2H-pyran-2-yl)-5-chloro-N-(furan-2-ylmethyl)-3-methylthieno[3,2-b]pyridin-7-amine [Compound 25] | 30 to 300 | 30 to 300
9 | N[C@@H]1CCCCCC[C@H]1c1sc2c(NCc3cccs3)cc(Cl)nc2c1Br [Compound 100, 2-((1R,2R)-2-aminocyclooctyl)-3-bromo-5-chloro-N-(thiophen-2-ylmethyl)thieno[3,2-b]pyridin-7-amine] | > 1000 | > 1000
10 | N[C@@H]1CCCCC[C@H]1c1sc2c(NCc3cccs3)cc(Cl)nc2c1Br [Compound 74, 2-((1R,2R)-2-aminocycloheptyl)-3-bromo-5-chloro-N-(thiophen-2-ylmethyl)thieno[3,2-b]pyridin-7-amine] | > 1000 | > 1000
11 | CCOC(=O)C1=CC[C@@H](c2sc3c(NCc4cccs4)cc(Cl)nc3c2C)[C@@H](N)C1 [Compound 445, ethyl (4R,5S)-5-amino-4-(5-chloro-3-methyl-7-((thiophen-2-ylmethyl)amino)thieno[3,2-b]pyridin-2-yl)cyclohex-1-ene-1-carboxylate] | 300 to 1000 | 300 to 1000
12 | N[C@@H]1COCC[C@H]1c1sc2c(NCc3ccccc3)cc(Cl)nc2c1Br.N[C@H]1COCC[C@@H]1c1sc2c(NCc3ccccc3)cc(Cl)nc2c1Br (mixture of isomers) [Compound 328, 2-((3R,4S)-3-aminotetrahydro-2H-pyran-4-yl)-N-benzyl-3-bromo-5-chlorothieno[3,2-b]pyridin-7-amine and 2-((3S,4R)-3-aminotetrahydro-2H-pyran-4-yl)-N-benzyl-3-bromo-5-chlorothieno[3,2-b]pyridin-7-amine] | 30 to 300 | 30 to 300
13 | N[C@@H]1CC=CC[C@H]1c1sc2c(NCc3ccccc3)nc(Cl)nc2c1Br [Compound 434, 6-((1R,6R)-6-aminocyclohex-3-en-1-yl)-N-benzyl-7-bromo-2-chlorothieno[3,2-d]pyrimidin-4-amine] | 30 to 300 | 30 to 300
14 | 2-((3R,4R)-3-aminotetrahydro-2H-pyran-4-yl)-3-bromo-5-chloro-N-(thiophen-2-ylmethyl)thieno[3,2-b]pyridin-7-amine and 2-((3S,4S)-3-aminotetrahydro-2H-pyran-4-yl)-3-bromo-5-chloro-N-(thiophen-2-ylmethyl)thieno[3,2-b]pyridin-7-amine [Compound 146] | > 1000 | > 1000
15 | N[C@@H]1CCCC[C@H]1c1sc2c(NCc3ccco3)cc(Cl)nc2c1Cl [Compound 296, 2-((1R,2R)-2-aminocyclohexyl)-3,5-dichloro-N-(furan-2-ylmethyl)thieno[3,2-b]pyridin-7-amine] | 30 to 300 | 30 to 300
16 | N[C@H]1CCCO[C@@H]1c1c(Br)c2nc(Cl)cc(NCc3cccs3)c2n1C(F)F [Compound 281, 2-((2S,3S)-3-aminotetrahydro-2H-pyran-2-yl)-3-bromo-5-chloro-1-(difluoromethyl)-N-(thiophen-2-ylmethyl)-1H-pyrrolo[3,2-b]pyridin-7-amine] | 30 to 300 | 30 to 300

Continued, values first:

Row | IC50 (ATXN3 pre-mRNA) [nM] | IC50 [1] [nM] | Compound
17 | 30 to 300 | 30 to 300 | Cn1c([C@H]2CCOC[C@@H]2N)c(Br)c2nc(Cl)cc(NCc3cccs3)c21 [Compound 351, 2-((3R,4S)-3-aminotetrahydro-2H-pyran-4-yl)-3-bromo-5-chloro-1-methyl-N-(thiophen-2-ylmethyl)-1H-pyrrolo[3,2-b]pyridin-7-amine]
18 | 30 to 300 | 30 to 300 | C/C=C\CNc1cc(Cl)nc2c(Cl)c([C@H]3CCCC[C@@H]3N)sc12 [Compound 442, 2-((1S,2S)-2-aminocyclohexyl)-N-((Z)-but-2-en-1-yl)-3,5-dichlorothieno[3,2-b]pyridin-7-amine]
19 | 30 to 300 | 30 to 300 | N[C@@H]1CC=CC[C@H]1c1c(I)c2nc(Cl)nc(NCc3ccco3)c2n1C(F)F [Compound 379, 6-((1R,6R)-6-aminocyclohex-3-en-1-yl)-2-chloro-5-(difluoromethyl)-N-(furan-2-ylmethyl)-7-iodo-5H-pyrrolo[3,2-d]pyrimidin-4-amine]
20 | 30 to 300 | 30 to 300 | N[C@H]1CC=CC[C@@H]1c1sc2c(NCc3cccs3)cc(Cl)nc2c1C#Cc1cccnc1 [Compound 307, 2-((1S,6S)-6-aminocyclohex-3-en-1-yl)-5-chloro-3-(pyridin-3-ylethynyl)-N-(thiophen-2-ylmethyl)thieno[3,2-b]pyridin-7-amine]
21 | 30 to 300 | 30 to 300 | N[C@H]1CC=CC[C@@H]1c1c(I)c2nc(Cl)cc(NCc3cccs3)c2n1C(F)F [Compound 325, 2-((1S,6S)-6-aminocyclohex-3-en-1-yl)-5-chloro-1-(difluoromethyl)-3-iodo-N-(thiophen-2-ylmethyl)-1H-pyrrolo[3,2-b]pyridin-7-amine]
22 | 30 to 300 | 30 to 300 | N[C@@H]1CC=CC[C@H]1c1sc2c(NCc3ccccc3F)cc(Cl)nc2c1Br [Compound 411, 2-((1R,6R)-6-aminocyclohex-3-en-1-yl)-3-bromo-5-chloro-N-(2-fluorobenzyl)thieno[3,2-b]pyridin-7-amine]
23 | 30 to 300 | 30 to 300 | N[C@H]1CCCC(F)(F)[C@@H]1c1sc2c(NCc3cccs3)cc(Cl)nc2c1Cl [Compound 291, 2-((1R,6S)-6-amino-2,2-difluorocyclohexyl)-3,5-dichloro-N-(thiophen-2-ylmethyl)thieno[3,2-b]pyridin-7-amine]
24 | ≤ 30 | ≤ 30 | N[C@H]1CC=CC[C@@H]1c1sc2c(NCc3ccncc3)cc(Cl)nc2c1Br [Compound 198, 2-((1S,6S)-6-aminocyclohex-3-en-1-yl)-3-bromo-5-chloro-N-(pyridin-4-ylmethyl)thieno[3,2-b]pyridin-7-amine]
25 | 30 to 300 | 30 to 300 | N[C@H]1CCCO[C@@H]1c1c(Br)c2nc(Cl)cc(NCc3ccco3)c2n1C(F)F [Compound 270, 2-((2S,3S)-3-aminotetrahydro-2H-pyran-2-yl)-3-bromo-5-chloro-1-(difluoromethyl)-N-(furan-2-ylmethyl)-1H-pyrrolo[3,2-b]pyridin-7-amine]
26 | 30 to 300 | 300 to 1000 | N[C@H]1CCCC[C@@H]1c1sc2c(NCc3cccs3)cc(Cl)nc2c1-c1ccccc1 [Compound 129]
27 | 30 to 300 | 30 to 300 | 6-((1R,6R)-6-aminocyclohex-3-en-1-yl-2,2,3,4,5,5-d6)-2-chloro-N-(furan-2-ylmethyl)-7-methylthieno[3,2-d]pyrimidin-4-amine and 6-((1S,6S)-6-aminocyclohex-3-en-1-yl-2,2,3,4,5,5-d6)-2-chloro-N-(furan-2-ylmethyl)-7-methylthieno[3,2-d]pyrimidin-4-amine [Compound 297]
28 | ≤ 30 | ≤ 30 | N[C@H]1CCCC[C@@H]1c1sc2c(NCc3ccncc3)cc(Cl)nc2c1Br [Compound 197, 2-((1S,2S)-2-aminocyclohexyl)-3-bromo-5-chloro-N-(pyridin-4-ylmethyl)thieno[3,2-b]pyridin-7-amine]
